Values quoted from earlier work as cited in patent US12390475B2, “Dry powder treprostinil for the treatment of pulmonary hypertension” (priority 2016, dated 2025).
Where two headings read alike, the source gives them in different places.

Columns and labels:
[1] = aqueous titration with 20% ethanol as a co-solvent
[2] = various buffer solutions at various pH levels, octanol

Row | Structure (SMILES) | solubility (in acetone) | solubility (in acetonitrile) | solubility (in ethanol) | solubility (in ethyl acetate) | solubility (in n-hexane) | solubility (in water) | pKa [1] | distribution coefficient [2] | solubility (unbuffered water and low pH buffers)
1 | CCCCC[C@H](O)CC[C@@H]1[C@H]2Cc3cccc(OCC(=O)[O-])c3C[C@H]2C[C@H]1O.[Na+] [Treprostinil sodium] | very slightly soluble | practically insoluble | very soluble | practically insoluble | practically insoluble | very soluble |  |  | 
2 | CCCCC[C@H](O)CC[C@@H]1[C@H]2Cc3cccc(OCC(=O)O)c3C[C@H]2C[C@H]1O [Treprostinil, 2-[[(1R,2R,3aS,9aS)-2-hydroxy-1-[(3S)-3-hydroxyoctyl]-2,3,3a,4,9,9a-hexahydro-1H-cyclopenta[g]naphthalen-5-yl]oxy]acetic acid] |  |  |  |  |  |  | 4.5 | distribution into octanol layers at all pH levels | poorly soluble
